In patent publication US20230167149A1, “CD33 LIGANDS SUITABLE FOR INCORPORATION INTO CARRIERS” (GLYCOMIMETICS, INC., priority 2020, published 2023):

Molecular target: T1, CD33 (Homo sapiens, UniProt P20138)
T1 construct: purchased BioLegend 750106
Test: CD33 competitive binding assay
Conditions: immobilized CD33-Fc; competition with Neu5Acα2-3Galβ1-3GalNAc-PAA-biotin; TMB readout at 450 nm
Description: The assay to screen for and characterize glycomimetic ligands of CD33 is a competitive binding assay, which allows the determination of IC50 values. CD33-Fc (BioLegend catalog item 750106) was immobilized in 96 well microtiter plates by incubation at 4° C. overnight. To reduce non-specific binding, bovine serum albumin was added to each well and incubated at room temperature for 2 hours. The plate was washed and serial dilutions of the test compounds were added to the wells in the presence of biotinylated polyacrylamide conjugated with Neu5Acα2-3Galβ1-3GalNAc-PAA-biotin (GlycoTech catalog item 01-088). After incubation at room temperature for 2 hours and washing, streptavidin/horseradish peroxidase was added to each well and incubated at room temperature for 30 minutes followed by an additional wash.
To determine the amount of glycopolymer bound to the immobilized CD33, the peroxidase substrate 3.3′.5.5′ tetramethylbenzidine (TMB) was added. After 5 minutes, the enzyme reaction was stopped by the addition of H3PO4 and the absorbance of light at a wavelength of 450 nm was determined. The concentration of test compound required to inhibit binding by 50% was determined and reported as the IC50 value.

T1 sequence (P20138 18-364): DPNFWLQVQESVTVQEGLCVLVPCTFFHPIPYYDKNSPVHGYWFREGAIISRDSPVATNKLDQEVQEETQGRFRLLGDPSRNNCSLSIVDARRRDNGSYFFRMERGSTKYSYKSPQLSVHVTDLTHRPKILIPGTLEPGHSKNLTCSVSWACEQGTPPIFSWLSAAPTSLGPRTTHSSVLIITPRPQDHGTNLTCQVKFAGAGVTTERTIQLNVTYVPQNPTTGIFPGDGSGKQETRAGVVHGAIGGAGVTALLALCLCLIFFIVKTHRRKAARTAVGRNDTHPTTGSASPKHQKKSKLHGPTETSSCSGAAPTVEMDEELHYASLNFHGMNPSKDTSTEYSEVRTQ

An IC50 of 40 µM was found for CCCNC(=O)COC1C[C@](OCCCn2cc(-c3ccccc3)nn2)(C(=O)O)OC([C@H](O)[C@H](O)CNC(=O)c2cc(C)c(O)c(C)c2)[C@@H]1NC(=O)Cn1cc(C2CCCCC2)nn1 (stereo partly shown) [Compound 193] in this work.
